Results: US7109341B2, “Therapeutic amides” (Wayne State University, priority 2002, dated 2006)
Values joined by “and” are separate entries in the source; they are usually repeats but may differ in a detail not shown here. Equal entries are not always repeated. “Also recorded” adds a separate entry of the source. Where two headings read alike, the source gives them in different places.

Columns and labels:
[1] = test system: Pancreatic Ductal Adenocarcinoma #03; experiment: Evaluation against early stage Pancreatic Ductal Adenocarcinoma #03, BD1 female mice (Table 2); settings: PO
[2] = Water solubility noted on drug preparation for injection; type: physicochemical; settings: for Preparation: state of the injection preparation: white solid + 3% EtOH + 1% POE + 0.25% NaHCO3 + saline, pH = 8.0
Method: (§1) Compounds as their sodium salts were prepared in a 1% sodium bicarbonate solution, H2O or phosphate buffered saline (PBS), with pH adjusted to 7.0 to 7.5 with HCl, and administered intravenously (IV) or orally (PO), at injection volumes of 0.2 mL per injection.

[3] = test system: Pancreatic Ductal Adenocarcinoma 03; experiment: Evaluation against early stage Pancreatic Ductal Adenocarcinoma 03, IP route, C57 females (Table 9); type: in vivo
Method: The IP route was used for two reasons. […] This is approximately 40% of the dose given IV with the racemic mix (60 mg/kg, see Table 7).

[4] = test system: Pancreatic Ductal Adenocarcinoma 03;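 further: mice carrying bilateral subcutaneous tumors, with tumor weight estimated from two-dimensional caliper readings taken twice a week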
Description: Pancreatic ductal adenocarcinoma-03, mammary adenocarcinoma-16/C, mammary adenocarcinoma-17/Adr, and human melanoma LOX were used in the studies. Tumors were maintained in the mouse strain of origin (C57B1/6 for Panc-03 and C3H for the mammary tumors). Balb/c SCID mice (B and T cell deficient) were used for tumor maintenance and chemotherapy trials involving the human melanoma LOX. Tumors were transplanted into the appropriate F1 hybrid (B6D2F1=C57B 1/6 female× DBA/2 male) or the strain of origin for the chemotherapy trials. Individual mouse body weights for each experiment were within 5 grams, and all mice were over 17 grams at the start of therapy. The mice were supplied food and water ad libitum.
Animals were pooled, implanted subcutaneously with 30 to 60 mg tumor fragments by a 12 gauge trocar on day 0, and again pooled before unselective distribution to the various treatment and control groups. For early stage treatment, chemotherapy was started within 1 to 3 days after tumor implantation while the number of cells was relatively small (10^7 to 10^8 cells). For upstaged or advanced staged trials, the tumors were allowed to grow for five or more days before treatment was started. Tumors were measured with a caliper twice weekly. […] Tumor weights are estimated from two-dimensional measurements:
Tumor weight (in mg)=(a×b^2)/2, where a and b are the tumor length and width in (mm), respectively.
a) Tumor growth delay (T−C value), where T is the median time (in days) required for the treatment group tumors to reach a predetermined size (e.g., 1,000 mg), and C is the median time (in days) for the control group tumors to reach the same size. Tumor-free survivors were are excluded from these calculations (cures are tabulated separately). This value is an important criterion of anti-tumor effectiveness because it allows the quantification of tumor cell kill.
b) Calculation of tumor cell kill for subcutaneously (SC) growing tumors. […] The conversion of the T−C values to log10 cell kill is possible because the Td of tumors re-growing post treatment (Rx) approximates the Td values of the tumors in untreated control mice.
It should be noted that an activity rating of +++ to ++++ is needed to effect partial regression (PR) or complete regression (CR) of 100 to 300 mg size masses of most transplanted solid tumors of mice. Thus, an activity rating of + or ++ would not be scored as active by usual clinical criteria. A PR is a reduction in tumor mass to less than 50% of pretreatment size. A CR is a reduction in tumor mass to below palpable size (i.e., reduction to zero detectable mass).
The T/C value in percent is an indication of anti-tumor effectiveness: A T/C=0% means no tumor growth. A T/C=100% means no anti-tumor activity, i.e., the treated and control tumors grew equally. […] A T/C value<10% is considered to indicate highly significant anti-tumor activity, and is the level used by NCI to justify a clinical trial if toxicity, formulation, and certain other requirements are met (termed DN-2 level activity).
as §1
Thus, for this test, all compounds initially were to be given IP, in an attempt to identify a suitable alternate route of administration.

[5] = Cage 3, BID3–7, total 2,300 mg/kg
[6] = Cage 4, BID 3, 4, total 480 mg/kg
[7] = Cage 2, BID3–5, total 450 mg/kg
[8] = Cage 3, BID3–7, total 450 mg/kg
[9] = Cage 8, 135 mg/kg IP day 3, then SC days 5, 7, 11, 13, 15, total 615 mg/kg
[10] = Cage 9, IP, 80 mg/kg/inj days 3, 5, 7, 11, 13, 15, total 480 mg/kg
[11] = Cage 10, IP, 50 mg/kg/inj Q2d×7 from day 3, total 350 mg/kg
[12] = IP d 3 then SC d5, 7, 11, 13, 15, total dosage 615 mg/kg, BDF1 males
[13] = IP, Q2d: 3–15, total dosage 350 mg/kg, BDF1 males
[14] = IP, d3, 5, 7, 11, 13, 15, total dosage 480 mg/kg, BDF1 males
[15] = Cage 2, IP, 135 mg/kg day 3 only
[16] = Cage 3, IP, 80 mg/kg day 3 only
[17] = Cage 4, 50 mg/kg IP day 3, then IV Q2d×7 through day 15, total 455 mg/kg
[18] = IP d3 then IV Q2d: 5–15, total dosage 455 mg/kg, BDF1 males
[19] = IP, d 3, total dosage 80 mg/kg, BDF1 males
[20] = IP, d 3, total dosage 135 mg/kg, BDF1 males

## CNC(=O)C(C)Oc1ccc(Oc2cnc3ccc(Cl)cc3n2)cc1 (stereo not drawn) [Compound 14b]
[1]; [5]
  Day of Wt. Loss Nadir: 8 days
  Drug Deaths (day of death): 0/5
  Growth Delay: 7.0 days
  Log Cell Kill: 0.8
  Mean Body Wt. Loss (g/mouse): −2.0 g/mouse
  Median Tumor Burden in mg on d18 (Range): 671 mg
  T/C %: 39%
  Time in days to 1000 mg (range): 21 days
  Tumor Free on d 154: 0/5
  day of full body weight recovery: 10 days
[1]; [6]
  % Body Wt. Loss: 4%
  Day of Wt. Loss Nadir: 5 days
  Drug Deaths (day of death): 0/5
  Growth Delay: 2.0 days
  Log Cell Kill: 0.2
  Mean Body Wt. Loss (g/mouse): −0.8 g/mouse
  Median Tumor Burden in mg on d18 (Range): 1266 mg
  T/C %: 74%
  Time in days to 1000 mg (range): 15 days
  Tumor Free on d 154: 0/5
[1]; Cage 5, BID 3, total 108 mg/kg
  % Body Wt. Loss: 0%
  Day of Wt. Loss Nadir: 5 days
  Drug Deaths (day of death): 0/5
  Growth Delay: 2.7 days
  Log Cell Kill: 0.3
  Mean Body Wt. Loss (g/mouse): +0.4 g/mouse
  Median Tumor Burden in mg on d18 (Range): 1312 mg
  T/C %: 77%
  Time in days to 1000 mg (range): 15.7 days
  Tumor Free on d 154: 0/5
[2]
  water solubility: water insoluble

## CC(Oc1ccc(Oc2ccc3ccc(Br)cc3n2)cc1)C(=O)NCCS(=O)(=O)[O-].[Na+] [Compound 14g (R), Sodium (2-(4-(7-bromo-2-quinolinyl)oxy)phenoxy) propionylamino ethanesulfonate]
[3]; [7]
  Day of Wt. Loss Nadir: 9 days
  Drug Death (day of death): one drug death and 1/5
  Log Cell Kill: 1.52
  Mean Body Wt. Loss in g/mouse: −4.4 g/mouse
  Median Tumor Burden in mg on d14 (range): 0 mg
  T-C: 10.75 days
  T/C %: 0%
  Time to 1000 mg in days (range): 24.75 days
  Tumor Free on d31: 0/5
  day of body weight recovery: ≤ 17 days
  toxicity observations: increased urinary output and a sunken appearance
[3]; [8]
  Day of Wt. Loss Nadir: 9 days
  Drug Death (day of death): 0/5
  Log Cell Kill: 1.72
  Mean Body Wt. Loss in g/mouse: −1.2 g/mouse
  Median Tumor Burden in mg on d14 (range): 126 mg
  T-C: 12 days
  T/C %: 12.6%
  Time to 1000 mg in days (range): 26 days
  Tumor Free on d31: 0/5
[2]
  water solubility: Low water solubility limits
[2]; expressed as injectable dose
  solubility limit: 25 mg/kg (0.2 ml/inj)

## CC(Oc1ccc(Oc2ccc3ccc(Br)cc3n2)cc1)C(=O)NCC(=O)O [Compound 14h (R), {2-[4-(7-Bromo-quinolin-2-yloxy)-phenoxy]-propionylamino}acetic acid]
[2]
  water solubility: Low water solubility limits; also recorded: much lower water solubility
  Preparation: state of the injection preparation: Compound 14h (R): white solid + 3% EtOH + 1% POE + 0.25% NaHCO3 + saline → suspension (pH = 8.0); 0.5 ml/mouse/inj, IP; 0.2 ml/mouse/inj, SC.
[4]; [9]
  Activity Rating: ++ (1.3–1.9)
  T/C: 3%
  log cell kill: 1.9
[4]; [10]
  T/C: 6%
  log cell kill: 1.7
[4]; [11]
  Activity Rating: + (0.7–1.2)
  T/C: 16.5%
  log kill: 1.0
[4]; [12]
  Comments (Active/Inactive): Inactive
  Comments (activity rating): (++) (1.3–1.9)
  Drug Death: 0/5
  Log Cell Kill: 1.9
  Median Tumor Burden in mg on d17: 63 mg
  T-C: 13 days
  T/C %: 3%
  Time to 1000 mg: 28 days
  Tumor Free on 148: 0/5
[4]; [13]
  Comments (Active/Inactive): Active
  Comments (activity rating): (+) (0.7–1.2)
  Drug Death: 0/5
  Log Cell Kill: 1.0
  Median Tumor Burden in mg on d17: 304 mg
  T-C: 7 days
  T/C %: 16.5%
  Time to 1000 mg: 22 days
  Tumor Free on 148: 0/5
[4]; [14]
  Comments (Active/Inactive): Active
  Comments (activity rating): (++) (1.3–1.9)
  Drug Death: 0/5
  Log Cell Kill: 1.7
  Median Tumor Burden in mg on d17: 108 mg
  T-C: 12 days
  T/C %: 6%
  Time to 1000 mg: 27 days
  Tumor Free on 148: 0/5
[4]; mouse, in vivo
  Day of Wt. Loss Nadir: 9 days and 10 days and 8 days
  day of full weight recovery: 20 days and 15 days
  day of weight loss nadir: 9 days and 10 days and 8 days
  weight loss nadir: −13.3%

## CC(Oc1ccc(Oc2cnc3ccc(Cl)cc3n2)cc1)C(=O)NCC(=O)O [Compound 14i (R), {2-{4-(7-Chloro-quinoxalin-2-yloxy)-phenoxy}propionylamino}acetic acid]
[2]
  water solubility: good water solubility
  Preparation: state of the injection preparation: Compound 14i (R): white solid + 3% EtOH + 1% POE + 0.25% NaHCO3 + saline → solution (pH = 8.0); 0.5 ml/mouse/inj, IP; 0.2 ml/mouse/inj, IV.
[4]; [15]
  Activity Rating: + (0.7–1.2)
  T/C: 10%
  log cell kill: 1.1
[4]; [16]
  Activity Rating: + (0.7–1.2)
  T/C: 37%
  day of death: 4 days
  deaths: one injection death
  log kill: 0.7
[4]; [17]
  Activity Rating: ++ (1.3–1.9)
  T/C: 10% and 8%
  day of full weight recovery: ≤ 11 days
  day of weight loss nadir: 7 days
  log kill: 1.6
[4]; [18]
  Comments (Active/Inactive): Active
  Comments (activity rating): (++) (1.3–1.9)
  Drug Death: 0/5
  Log Cell Kill: 1.6
  Median Tumor Burden in mg on d17: 151 mg
  T-C: 11 days
  T/C %: 8%
  Time to 1000 mg: 26 days
  Tumor Free on 148: 0/5
[4]; [19]
  Comments (Active/Inactive): Active
  Comments (activity rating): (+) (0.7–1.2)
  Drug Death: 1/5
  Drug Death (day of death): (d4)
  Log Cell Kill: 0.7
  Median Tumor Burden in mg on d17: 675 mg
  T-C: 5 days
  T/C %: 37%
  Time to 1000 mg: 20 days
  Tumor Free on 148: 0/5
[4]; [20]
  Comments (Active/Inactive): Active
  Comments (activity rating): (+) (0.7–1.2)
  Drug Death: 0/5
  Log Cell Kill: 1.1
  Median Tumor Burden in mg on d17: 189 mg
  T-C: 7.5 days
  T/C %: 10%
  Time to 1000 mg: 22.5 days
  Tumor Free on 148: 0/5
[4]; mouse, in vivo
  Day of Wt. Loss Nadir: 7 days and 4 days
[4]; mouse, in vivo, ip, 135 mg/kg
  day of full weight recovery: ≤ 9 days
  day of weight loss nadir: 7 days
  toxicity observations: prolonged pain response
